Assay results reported in patent publication US20250325571A1, “TREATMENT OF BINGE EATING DISORDER USING PSYCHEDELICS” (TRYP Therapeutics Inc., priority 2022, published 2025).

Key:
[1] = system: 2-deoxy-D-glucose-induced hyperphagia; conditions: rats; cited from earlier work
[2] = cited from earlier work
[3] = rats, cited from earlier work
[4] = across species tested; cited from earlier work
[5] = system: human subjects with a Binge eating disorder (BED); assay: Open-label clinical study of oral psilocybin with psychotherapy in BED: eating behavior, body and psychological indicators; type: in vivo; conditions: for BMI / Waist circumference / HADS Anxiety Score / HADS Depression Score / Acceptance and Action Questionnaire (AAQ-II) score / Patient Global Impression (PGI-I) score / Binge Eating Scale (BES) score: one subject; for Patient Global Impression (PGI-I) score: scale 1 (very much improved) to 7, baseline set at 4; for Binge Eating Scale (BES) score: BES ranges from 0 to 46
[6] = system: human subjects with a Binge eating disorder (BED); assay: Safety evaluation in the clinical study (adverse events, vital signs); type: in vivo
Description: Subjects were instructed to consume a low-fat breakfast at least one hour before reporting to the dosing session, where a single 25 mg oral dose of psilocybin was to be administered (Usona Institute). On dosing day, vital signs, for example, heart rate and BP, were assessed prior to administration of psilocybin and at 30, 60, 90, 120, 180, 240, 300, and 360 minutes post-administration. 12-lead ECGs were performed in triplicate pre-dosing and 60, 120, and 360 minutes after capsule administration. C-SSRS responses were reported prior to and following dosing. […] ACT-based clinical formulation continues as the therapist listens to emergent narratives and notes instances of psychological flexibility and inflexibility, especially present moment awareness, avoidance, and values.
Session monitors were trained to provide support to subjects if they experience acute anxiety, agitation, paranoia, or panic. However, in the event of an AE, a physician was consulted. AEs include psychiatric emergency, hypertension, acute chest pain, and headache. An oral benzodiazepine, for example, lorazepam, was available for treatment of panic or anxiety. An oral antipsychotic, for example, risperidone, was available for treatment of psychosis or severe agitation. If a subject experienced hypertension, a BP of >200 mm Hg systolic or >110 mm Hg diastolic for more than 15 minutes from four consecutive readings, the subject was transferred to the emergency room whether or not they were symptomatic. Labetalol or similar drug was available for treatment of hypertension. If a subject developed new-onset chest pain, the subject was evaluated in-person by the study physician to determine whether the pain was cardiovascular or musculoskeletal, or reflects acute panic/anxiety. Vital signs and ECG were monitored and compared to baseline measurements for evidence of acute ischemia. […]
Vital signs, such as BP and heart rate, were recorded at the dosing session, the day following dosing, and at Weeks 6, 10, and 14 (4, 8, and 12 weeks after the dosing session). […]
Adverse events (AEs) were monitored throughout the study. […]

[7] = system: tissue phosphatases; conditions: in vitro studies; cited from earlier work
[8] = doses examined in clinical studies; cited from earlier work
[9] = system: human subjects with a Binge eating disorder (BED); assay: Psychedelic experience questionnaires (CEQ, MEQ30) one day after dosing; conditions: one subject
[10] = day 0 (day of administration of psilocybin, 25 mg oral)
[11] = day 0, after dosing (25 mg oral)
[12] = day 27 after single 25 mg oral dose with psychotherapy
[13] = day −42 relative to dosing day (baseline, before psilocybin)

## Clc1cccc(N2CCNCC2)c1 [m-chlorophenylpiperazine]
[1]
  Effect on 2-deoxy-D-glucose-induced hyperphagia: inhibited

## CN(C)CCc1c[nH]c2cccc(O)c12 [psilocin]
[2]; after administration of the parent compound (oral psilocybin)
  Time until psilocin is detectable in plasma: ≤ 20 min
[2]; in vivo
  Half-life in blood: 2 to 3 h
[3]; post-administration of oral psilocybin
  Time to maximum plasma levels: approximately 90 minutes
[3]; psilocybin administered orally
  Fraction of total psilocin absorbed from the digestive tract: approximately 50%
[4]
  Brain regions with highest levels of psilocin: neocortex, hippocampus, and thalamus

## CN(C)CCc1c[nH]c2cccc(OP(=O)(O)O)c12 [psilocybin, 3-[2-(dimethylamino)ethyl]-1H-indol-4-yl]dihydrogen phosphate]
[5]; 3 subjects for whom data was available
  Persistence of decrease in FBE after administration: over 80 days
[5]; 4 of 5 subjects, four-week post-dosing measurement period
  Reduction of daily instances of feeling lost control over eating, 4 of 5 subjects: greater than 70%
[5]; 4 of 5 subjects, four-week post-dosing measurement period, FIG. 3A
  Reduction in daily binge eating episodes from baseline, 4 of 5 subjects: ≥ 75%
[5]; 5 subjects, four-week post-dosing measurement period, FIG. 3B
  Reduction of daily instances of feeling lost control over eating, average (Eating Questionnaire Q2): 81.6%
[5]; after administration of a single dose
  Duration of effects on BED symptom improvement: ≥ 80 days
[5]; all 4 subjects for whom data was available
  Persistence of decrease in FBE after administration: ≥ 50 days
[5]; all 5 subjects, four-week post-dosing measurement period
  Daily reduction in binge eating episodes from baseline, all subjects: at least 60%
[5]; average across 5 subjects, four-week post-dosing measurement period, single 25 mg oral dose
  Reduction of daily binge eating episodes from baseline, average (Eating Questionnaire Q1): 80.4%
[5]; [10]
  BMI: 43.5 kg/m^2
  Waist circumference: 105.9 cm
[5]; [11]
  HADS Anxiety Score: 6
  HADS Depression Score: 6
[5]; day 0, before dosing
  HADS Anxiety Score: 5
  HADS Depression Score: 5
[5]; day 13 after dosing
  Acceptance and Action Questionnaire (AAQ-II) score: 10
  HADS Anxiety Score: 4
  HADS Depression Score: 0
  Patient Global Impression (PGI-I) score: 1
[5]; day 27 after dosing
  Acceptance and Action Questionnaire (AAQ-II) score: 10
  HADS Anxiety Score: 2
  HADS Depression Score: 1
  Patient Global Impression (PGI-I) score: 1
[5]; [12]
  BMI: 42.5 kg/m^2
  Waist circumference: 104.4 cm
[5]; day 27 after single 25 mg oral dose
  Binge Eating Scale (BES) score: 5
[5]; day −42 (baseline)
  Acceptance and Action Questionnaire (AAQ-II) score: 13
  HADS Anxiety Score: 5
  HADS Depression Score: 5
  Binge Eating Scale (BES) score: 13
[5]; [13]
  BMI: 42.9 kg/m^2
  Waist circumference: 106.6 cm
[6]; 5 subjects, four-week period following administration
  Drug-related adverse events: No drug-related adverse events were reported
[6]; one subject, 25 mg oral dose
  Changes in heart rate or blood pressure: No substantial changes were observed
[6]; one subject, during the administration or the integration sessions
  Adverse events: No adverse events were observed
[2]; oral
  Bioavailability: ~50%
[7]
  Most active metabolic organs for initial psilocybin metabolism: kidneys as being among the most active metabolic organs
[8]
  Tolerability: well tolerated
[9]; CEQ ranges from 0.000 to 1.000
  Challenging Experience Questionnaire score: Death: 0
  Challenging Experience Questionnaire score: Fear: 0.16
  Challenging Experience Questionnaire score: Grief: 0
  Challenging Experience Questionnaire score: Insanity: 0
  Challenging Experience Questionnaire score: Isolation: 0
  Challenging Experience Questionnaire score: Paranoia: 0
  Challenging Experience Questionnaire score: Physical Distress: 0.24
  Challenging Experience Questionnaire score: Total Score: 0.06
[9]; MEQ30 ranges from 0% to 100%
  MEQ30 score: Ineffability: 80%
  MEQ30 score: Mystical: 45.33%
  MEQ30 score: Positive mood: 93.33%
  MEQ30 score: Total Score: 58.67%
  MEQ30 score: Transcendence of time and space: 46.67%
